Values joined by “and” are separate entries in the source; they are usually repeats but may differ in a detail not shown here. Equal values may be shown once.
Columns and labels:
[1] = Cytotoxicity assay, positive control (cell line not stated); assay type: cell-based; conditions: human
[2] = test system: two respiratory isolates (carrying NDM-5 and TEM-OSBL) from Russia in 2019; conditions: both isolates, reported to be resistant to cefiderocol; cited from earlier work
[3] = test system: K. pneumoniae; assay: MIC by broth microdilution (CLSI) against K. pneumoniae; assay type: cell-based, Klebsiella pneumoniae
Protocol: (§1) MIC tests were performed by broth microdilution in-line with CLSI susceptibility testing standards ([20], [21]) either in-house or at IHMA (Europe and USA) or JMI Laboratories using cation-adjusted Mueller Hinton Broth.

[4] = test system: E. coli; assay: MIC by broth microdilution (CLSI) against E. coli; assay type: cell-based, Escherichia coli
Protocol: as §1

[5] = 15 clinical MDR NDM isolates (NDM-1, NDM-4, NDM-5) from India (2018)
[6] = 100 MDR clinical isolates incl. ESBL and CRE

CSc1ccc2c(c1)N(CCC1CCCCN1C)c1ccccc1S2 (centres unmarked) [Thioridazine]
IC50 at 24 h [1]: 22.1 µM and 8.19 µg/mL

CC(C)(O/N=C(\C(=O)N[C@@H]1C(=O)N2C(C(=O)[O-])=C(C[N+]3(CCNC(=O)c4ccc(O)c(O)c4Cl)CCCC3)CS[C@H]12)c1csc(N)n1)C(=O)O [cefiderocol]
MIC [2]: > 64 µg/mL

Colistin [reference compound]
MIC Range K. pneumoniae (NDM) [3, 5]: 1 to 32 µg/mL | MIC50 K. pneumoniae [3, 6]: 0.5 µg/mL | MIC90 K. pneumoniae [3, 6]: 16 µg/mL | MIC ([3]; K. pneumoniae NCTC 13438 (MDR, Class A KPC)): 1.56 µM and 1.80 µg/mL | MIC Range E. coli (NDM) [4, 5]: 0.5 to 1 µg/mL | MIC50 E. coli [4, 6]: 0.5 µg/mL | MIC90 E. coli [4, 6]: 0.5 µg/mL | MIC range E. coli [4, 6]: 0.25 to 8 µg/mL | MIC ([4]; E. coli NCTC 13441 (UPEC, MDR, CTX-M-15 ESBL)): 0.16 µM and 0.18 µg/mL

Reference: paper PMC10777851, “SMT-738: a novel small-molecule inhibitor of bacterial lipoprotein transport targeting Enterobacteriaceae” (Antimicrobial Agents and Chemotherapy, 2023)
